Measurements published in ChEMBL document CHEMBL1157293, “Sylviside, a diterpene glucoside derivative from Gnaphalium sylvaticum” (J Nat Prod, 2006).

Legend:
[1] = system: HeLa; assay: Cytotoxicity against wild type human HeLa cells by MTT assay; assay type: functional, cell-based
[2] = system: HeLa; assay: Cytotoxicity against MDR1-G185 overexpressing human HeLa cells by MTT assay; assay type: functional, cell-based

C=C1[C@@H]2CC[C@H]3[C@]4(C)C[C@H](O[C@@H]5O[C@H](CO)[C@@H](O)[C@H](O)[C@H]5OC(=O)/C(C)=C\C)CC(C(=O)O)(C(=O)O)[C@H]4CC[C@]3(C2)[C@H]1O [SYLVISIDE]
IC50 [1]: 325 µM
IC50 [2]: 1.7 mM
